Experiments:
B16F10 cell line = experiment: Melanin production inhibitory activity in B16F10 cells; assay type: cell-based, mice; settings: extract 0.1 mg/ml, 72 hours, 400 nm
Procedure: The cell line used in the test was B16F10 cell line (Korean Cell Line Bank, Korea), which is a malignant melanoma cell in mice. The cryopreserved cell line was cultured in a culture dish, and after cell line stabilization was confirmed while repeating the subculture twice to three times in the cycle of 2 to 3 days after the first cell culture, cells were cultured in a 48-well plate by the number of cells of 1×10^5/well. Then, the test was prepared by incubating for 24 hours. […] 300 μl of the medium containing each of the sample, the negative control group, and the positive control group was added to a 48-well plate on which cell had been cultured in advance, and cell were cultured for 72 hours at 37° C. under 5% CO2 while the medium was exchanged every day. Thereafter, the medium was removed by washing each well with PBS, and then the cells were treated with 200 μl of 1N NaOH. Thereafter, absorbance was measured at 400 nm using a SpectraMax M2 (Molecular devices, USA). The degree of inhibition on the production of melanin was calculated by comparing the absorbance of the test group with that of the control group treated with the negative control group by using Equation 2. [formula]

tyrosinase [1] = experiment: Tyrosinase inhibitory activity using L-tyrosine; assay type: biochemical; settings: substrate L-tyrosine, sample 0.5 mg/ml, 25° C., 15 minutes, 475 nm
Procedure: The inhibitory activity of tyrosinase, which is an enzyme that plays an important role in the melanin synthesis process, was confirmed using the Syzygium formosum extract.
500 μl of 1 mM L-tyrosine, 900 μl of 0.1 M phosphate buffer (pH 6.8), and 100 μl of 0.5 mg/ml Syzygium formosum extract dissolved in 10% DMSO (Example 1, Example 2, and Comparative Examples 1 to 7) were mixed, and then 100 μl of tyrosinase (53.7 U/ml) was added thereto and reacted at a temperature of 25° C. for 15 minutes. At this time, DMSO was used as a control group, and 0.5 mg/ml arbutin was used as a positive control group.
The absorbance of the reaction solution was measured at 475 nm for 15 minutes at time intervals of 30 seconds, and then, the tyrosinase inhibitory activity (%) was calculated using Equation 1.

tyrosinase [2] = experiment: Tyrosinase inhibitory activity using L-DOPA; assay type: biochemical; settings: substrate L-DOPA, 25° C., 5 minutes, 475 nm
Procedure: Tyrosinase inhibitory activity was confirmed using L-DOPA.
• Tyrosinase solution: Tyrosinase was dissolved in 0.1M PBS (Phosphate buffered saline) buffer to prepare a solution having a concentration of 110 U/ml. • Substrate: L-DOPA was dissolved in 0.1M PBS buffer to be in the concentration of 5 mM. • Sample Usage: Diluted with distilled water to a corresponding concentration and used. • Negative control: Distilled water was added instead of the sample.
Syzygium formosum extract (Example 1, Example 2, and Comparative Examples 1 to 7), 30 μl of negative control (control), 30 μl of positive control (positive control), 70 μl of 0.1M PBS buffer, and 30 μl of substrate were added. Then, 20 μl of tyrosinase was added thereto, and the reaction was performed at a temperature of 25° C. for 5 minutes. After completion of the reaction, absorbance was measured at 475 nm. The tyrosinase inhibitory activity (%) was calculated using Equation 1 by comparing the absorbance of the test group with that of the control group.

OC[C@H]1O[C@@H](Oc2ccc(O)cc2)[C@H](O)[C@@H](O)[C@@H]1O [Arbutin, arbutin]
Inhibitory activity (%) (B16F10 cell line): 21.1%
Inhibitory activity (%) (tyrosinase [1]): 49.1%
Inhibitory activity (%) (tyrosinase [2]): 18.6%

Source: patent US20250195403A1, “SKIN WHITENING, ANTI-BACTERIAL OR ANTI-ATOPIC COMPOSITION, CONTAINING SYZYGIUM FORMOSUM EXTRACT AS ACTIVE INGREDIENT” (CARBOEXPERT INC., priority 2018, published 2025)
